Data reported in patent publication US20100311767A1 (priority 2007, published 2010).

Tested on: cultured hippocampal neurons

Row | Compound | frequency of spontaneous IPSCs | amplitude of miniature PSCs | frequency of miniature PSCs
1 | CC(C)NCC(O)c1ccc(O)c(O)c1 (stereo not drawn) [isoproterenol, 4-[1-hydroxy-2-(1-methylethylamino)ethyl]benzene-1,2-diol] | 122±58% | – | –
2 | ω-agatoxin IVA | – | 90±7% | 27±7%
